Patent USRE43005E1, “Compositions and methods for their preparation from lepidium” (Naturex Inc., priority 1999, dated 2011)

SMILES	melting point
CCCCCCCC(=O)NCc1ccccc1 [MA-3, N-benzyl octanamide]	76 to 78 °C
CCC(=O)/C=C/C=C/C=C/C(=O)CCCCCCCC(=O)NCc1ccccc1 [MA-9, N-benzyl-9,16-dioxo-10E,12E,14E-octadecatrienamide]	115 to 116 °C
